Results taken from ChEMBL document CHEMBL4627309, “Tetra-aryl cyclobutane and stilbenes from the rhizomes of Rheum undulatum and their α-glucosidase inhibitory activity: Biological evaluation, kinetic analysis, and molecular docking simulation” (Bioorg Med Chem Lett, 2020).
Calls of active or inactive are those of the source. The rule behind the calls is not given here.

How the values were obtained:
[1] = Inhibition of alpha-glucosidase (unknown origin) using p-NPG as substrate by spectrophotometric analysis; set-up: species or system Homo sapiens
[2] = Inhibition of alpha-glucosidase (unknown origin) using p-NPG as substrate by Dixon plot analysis; set-up: species or system Homo sapiens
[3] = species: Homo sapiens; assay: Mixed inhibition of alpha-glucosidase (unknown origin) using p-NPG as substrate by Lineweaver-Burk plot analysis

Row | SMILES | IC50 [1] | Ki [2] | inhibition [3]
1 | Cc1cc(O)c2c(c1)C(=O)c1cccc(O[C@@H]3O[C@H](CO)[C@@H](O)[C@H](O)[C@H]3O)c1C2=O [PULMATIN] | > 100 µM |  | 
2 | COc1cc(O[C@@H]2O[C@H](CO)[C@@H](O)[C@H](O)[C@H]2O)c2c(c1)C(=O)C(C)=C(C(C)=O)C2=O | > 100 µM |  | 
3 | COc1ccc(/C=C/c2cc(O)cc(O[C@@H]3O[C@H](COC(=O)c4ccc(O)cc4)[C@@H](O)[C@H](O)[C@H]3O)c2)cc1 | > 100 µM |  | 
4 | COc1ccc(/C=C/c2cc(O)cc(O[C@@H]3O[C@H](CO)[C@@H](O)[C@H](O)[C@H]3O)c2)cc1O [RHAPONTIN] | > 100 µM |  | 
5 | COc1ccc(/C=C\c2cc(O)cc(O[C@@H]3O[C@H](COC(=O)/C=C/c4ccc(O)cc4)[C@@H](O)[C@H](O)[C@H]3O)c2)cc1 | > 100 µM |  | 

Continued, values first:

Row | IC50 [1] | Ki [2] | inhibition [3] | SMILES
6 | > 100 µM |  |  | COc1ccc(/C=C/c2cc(O)cc(O[C@@H]3O[C@H](COC(C)=O)[C@@H](O)[C@H](O)[C@H]3O)c2)cc1O
7 | 80.1 µM |  |  | COc1ccc([C@@H]2[C@@H](c3cc(O)cc(O)c3)[C@@H](c3cc(O)cc(O)c3)[C@@H]2c2ccc(OC)c(O)c2)cc1O
8 | > 100 µM |  |  | COc1cc(O[C@@H]2O[C@H](CO)[C@@H](O)[C@H](O)[C@H]2O)c2c(O)c(C(C)=O)c(C)cc2c1
9 | 127 µM |  |  | C[C@H]1O[C@H](O[C@H]2[C@H](O)[C@@H](O)[C@@H](O[C@H]3[C@H](O)[C@@H](O)C(O)O[C@@H]3CO)O[C@@H]2CO)[C@H](O)[C@@H](O)[C@@H]1N[C@H]1C=C(CO)[C@@H](O)[C@H](O)[C@H]1O (some centres undefined) [ACARBOSE]
10 | > 100 µM |  |  | Cc1cc(O[C@@H]2O[C@H](CO)[C@@H](O)[C@H](O)[C@H]2O)c2c(c1)C(=O)c1cccc(O)c1C2=O [CHRYSOPHANEIN]
11 | > 100 µM |  |  | OC[C@H]1O[C@@H](Oc2cc(O)cc(/C=C/c3ccc(O)cc3)c2)[C@H](O)[C@@H](O)[C@@H]1O [PICEID]
12 | 15.4 µM | 15.3 µM | Active | COc1ccc(/C=C/c2cc(O)cc(O)c2)cc1O
